Laboratory results taken from patent publication US10913714B2, “Pyrrole sulfonyl derivative, preparation method and medical use thereof” (JIANGSU CAREPHAR PHARMACEUTICAL CO., LTD, priority 2015, dated 2021).
Marks after values point to notes of the source that are not given here.

What was measured:
[1] = target: T1, H^+/K^+-ATPase (Oryctolagus cuniculus, UniProt P27112); experiment: Inhibition of H+/K+-ATPase enzymatic activity (rabbit gastric mucosal microsomes, malachite green); assay type: biochemical; settings: pH 6.5, 37° C. 30 min, read-out: The median inhibitory concentration (IC50) of the compound to the activity of H^+/K^+-ATPase
T1 construct: collecting the middle layer (H^+/K^+-ATPase enriched gastric membranes) into a clean centrifugal tube; from tissue; host or cells: rabbit stomach (gastric mucosal microsomes, sucrose/Ficoll gradient centrifugation)
Source text: Biological Evaluation on H^+/K^+-ATPase
The following screening assays in vitro are used to evaluate the inhibiting effect of the compound of the Invention on the enzymatic activity of H^+/K^+-ATPase. Experimental materials and instruments are as follows:
1) Rabbit gastric mucosal microsomes (enriched H^+/K^+-ATPase; extracted by the Applicant)
2) Buffer solution: 50 mmol/L HEPEs-Tris, pH=6.5, 5 mmol/L magnesium chloride, 10 μmol/L valinomycin;
3) Buffer solution: 50 mmol/L HEPEs-Tris, pH=6.5, 5 mmol/L magnesium chloride, 10 μmol/L valinomycin, 5 mmol/L potassium chloride;
4) ATP: diluting ATP to 5 mM with buffer solution 1;
5) Malachite green solution: dissolving 0.12% of malachite green in 2.5 mol/L of sulfuric acid; mixing 7.5% (V/V) of ammonium molybdate and 11% of Tween 20(V/V) in a proportion of 100:25:2;
6) The method for extracting rabbit gastric mucosal microsomes (enriched H^+/K^+-ATPase) is sucrose gradient centrifugation, i.e., washing the rabbit stomach with tap water and 3M NaCl solution respectively and removing the surface moisture with filter paper; adding the pre-cooled buffer solution (4 ml/g tissue) for homogenation in a tissue homogenizer for 2-5 min; removing the large tissue particles in a way of centrifugation (600 g, 10 mm) if any after homogenation; transferring the supernatant to a clean centrifugal tube for centrifugation for 30 min at 2000 g; then transferring the supernatant to a clean centrifugal tube for further centrifugation for 90 min at 100000 g; collecting the sediment; suspending the sediment in the homogenate and blowing it to be uniform; measuring the protein concentration with Bradford method; adjusting the concentration to 10 mg/ml; adding 7.5% Ficoll demixing fluid in an equal proportion for centrifugation for 60 min at 100000 g; collecting the middle layer (H^+/K^+-ATPase enriched gastric membranes) into a clean centrifugal tube; diluting it with 4-5 times of homogenate for further centrifugation for 90 min at 100000 g; collecting the sediment; suspending the sediment in the homogenate for homogenation with a glass homogenizer; measuring the protein concentration with Bradford method and adjusting the concentration to 22.5 mg/ml; freezing it under −80° C. for standby. Experimental Process:
Adding 5 μL of gastric mucosal microsomes (H^+/K^+-ATPase) in 45 µL of buffer solution 2; adding 5 μL of the compound solution; adding 5 μL 5 mM of ATP to start the reaction for pre-reaction at 37° C. for 30 min; adding 15 μL of malachite green solution to terminate the reaction; balancing at ambient temperature for 20 min; reading the value of absorbed light at 620 nm.
Meanwhile, conducting another reaction with the same volume without potassium chloride for background, which will be subtracted when calculating the enzymatic activity.
The value of Compound IC50 is calculated through the inhibition ratios at different concentrations.

[2] = target: T2, hERG potassium channel (Homo sapiens, UniProt Q12809); experiment: Whole cell patch clamp, inhibition of hERG tail current; assay type: cell-based
T2 construct: expressed in transfected cells
Method: Test Case 2: Studies on the Effect of Compounds EXP 1, TAK-438 and EXP 12 on hERG Potassium Channel Testing System 1) Cell culture: the hERG cell is cultured in a routine way, which is subcultured in a DMEM containing 10% of fetal calf serum and 250 μg/ml of G418. 2) Fluid preparation: the composition of the extracellular fluid used in the experiment of whole cell patch clamp comprises (mM): NaCl 145, MgCl21, KCl 4, Glucose 10, HEPES 10 and CaCl22; adjusting the pH value of NaOH to 7.4 and adjusting the value of osmotic pressure to 300 mOsm with sucrose. The composition of the intracellular fluid comprises (mM):KCl 140; MgCl 21; EGTA 5; HEPES 10 and Na2ATP 4; adjusting the pH value of KOH to 7.2 and adjusting the value of osmotic pressure to 290 mOsm with sucrose.
Main composition of the extracellular and intracellular fluid
Test Procedure 1) Electrophysiological recording: taking out one culture dish for each test; cleaning it with the extracellular fluid twice and placing it on the inverted microscope stage. The experiment of whole cell patch clamp is conducted at ambient temperature; the resistance at the microelectrode tip of the used borosilicate glass is 3-5 MQ. 2) Voltage stimulus plan and current record: clamping down the membrane potential to −80 mV under the whole-cell recording mode; giving +50 mV of depolarized voltage stimulus to the cell every 30 s and lasting for 2 s, then repolarizing it to −50 mV and lasting for 3 s, thus, the tail current of hERG can be extracted. Giving 50 ms, −50 mV repolarized voltage to the cell before depolarized voltage stimulus; the current recorded at such voltage is as the base line for calculating the tail current of hERG. Only the cells meet the recording standard can be used in the test of the compounds to be tested. The hERG tail current should be recorded stably at last for 3 min in the extracellular fluid before the compound is added. After perfusion of drugs, it can be regarded that the drug effect reaches a steady state if the change of the amplitude of hERG tail current is less than 5%. If the current fails to reach a steady state in 6 min, the test should also be terminated. 3) Testing standard: the membrane resistance in the experiment should be more than 1,000 MQ. The initial current should be more than 300 pA. The series resistance should be less than 12 MQ after the whole-cell recording mode is constructed. The leakage current is less than 10% of the ionic channel current (taking −80 pA as the peak value). Data Analysis
Using Clampex 10.2 to record the original data and saving the data in the format of *abf. Using pCLAMP 10.1 to conduct data collection and analysis. Selecting 4-5 sweeps when the current is in a steady state before the compound is added; calculating the average peak value to serve as the contrasted current amplitude. Selecting 4-5 sweeps when the current is in a steady state after the compound is added; calculating the average peak value to serve as the residual amplitude of the inhibited current. The inhibition ratio of the compound to be tested to hERG current is calculated as per the equation as: % inhibition ratio={1−(current residual amplitude)/(contrasted current amplitude)}*100
After the inhibition ratio (average value±standard deviation) of the compound to be tested to the hERG current of different concentrations is obtained through the above computing method, the data with logistic equation should be fitted to obtain the value of IC50.

[3] = tested on: gastric acid secretion induced by histamine; experiment: Gastric acid secretion induced by histamine in pylorus-ligated rats; assay type: in vivo; settings: SD rat
Source text: Test Case 3: Studies on the Effect of EXP 1, TAK-438 and EXP 14 on Gastric Acid Secretion Induced by Histamine Experimental Materials 1) Animals
SD rat, class SPF, male, 180-220 g; provided by Zhejiang Experimental Animal Center; production permit no.: SCXK (Z) 2014-0001.
Compound EXP 1, dissolved with a small amount of acetic acid (about 1.10N EXP 1), 0.9% sodium chloride solution to a clear liquid with needed concentration before use.
>Compound TAK-438, dissolved with 0.9% sodium chloride solution to a clear liquid with needed concentration before use.
Compound EXP 14, dissolved with a small amount of acetic acid (about 1.10N EXP 14), 0.9% sodium chloride solution to a clear liquid with needed concentration before use.
Fetching 60 SD rats of class SPF with a weight of 180-220 g; dividing the rats into 5 groups as per weights randomly, including Group EXP 1 (2 mg/kg), Group TAK-438 (2 mg/kg, as per free alkali), Group EXP 14 (2 mg/kg), Group negative control (normal saline of equal volume) and Group model control (normal saline of equal volume); 12 rats per group. Absolute diet for 24 h, water is allowed. After 24 h, administrating drugs to the tested compound groups A, B and C by gavage with a volume of 1 ml/100 g; each group is administered once; the negative control and model negative control groups are administrated by gavage with normal saline of equal volume. Narcotizing the rat with 300 mg/kg of chloral hydrate (1 ml/100 g) and fixing it onto the rat board; cutting to open the abdominal wall along the medioventral line from the mucronate cartilage with an incision of 2-3 cm; slightly pushing the left costal margin upward to expose the stomach in the incision. Ligaturing the pylorus thereunder (leave alone the adjacent blood vessels) and then suturing the abdominal incision. Giving histamine dihydrochloride (30 mg/10 m/kg) hypodermically to the rat 1 h after the tested compound or normal saline are administrated. Choking the rat to death with excessive CO2 3 h after the histamine is given; taking out the stomach and collecting the gastric contents for centrifugation at 3000 rpm/min; adjusting the PH value of the acid fluid to 7.0 with 0.1 mol/L of NaOH titration and then calculating the total acid content of the 3 h. Refer to Table 3 for results.

T1 sequence (P27112 whole entry): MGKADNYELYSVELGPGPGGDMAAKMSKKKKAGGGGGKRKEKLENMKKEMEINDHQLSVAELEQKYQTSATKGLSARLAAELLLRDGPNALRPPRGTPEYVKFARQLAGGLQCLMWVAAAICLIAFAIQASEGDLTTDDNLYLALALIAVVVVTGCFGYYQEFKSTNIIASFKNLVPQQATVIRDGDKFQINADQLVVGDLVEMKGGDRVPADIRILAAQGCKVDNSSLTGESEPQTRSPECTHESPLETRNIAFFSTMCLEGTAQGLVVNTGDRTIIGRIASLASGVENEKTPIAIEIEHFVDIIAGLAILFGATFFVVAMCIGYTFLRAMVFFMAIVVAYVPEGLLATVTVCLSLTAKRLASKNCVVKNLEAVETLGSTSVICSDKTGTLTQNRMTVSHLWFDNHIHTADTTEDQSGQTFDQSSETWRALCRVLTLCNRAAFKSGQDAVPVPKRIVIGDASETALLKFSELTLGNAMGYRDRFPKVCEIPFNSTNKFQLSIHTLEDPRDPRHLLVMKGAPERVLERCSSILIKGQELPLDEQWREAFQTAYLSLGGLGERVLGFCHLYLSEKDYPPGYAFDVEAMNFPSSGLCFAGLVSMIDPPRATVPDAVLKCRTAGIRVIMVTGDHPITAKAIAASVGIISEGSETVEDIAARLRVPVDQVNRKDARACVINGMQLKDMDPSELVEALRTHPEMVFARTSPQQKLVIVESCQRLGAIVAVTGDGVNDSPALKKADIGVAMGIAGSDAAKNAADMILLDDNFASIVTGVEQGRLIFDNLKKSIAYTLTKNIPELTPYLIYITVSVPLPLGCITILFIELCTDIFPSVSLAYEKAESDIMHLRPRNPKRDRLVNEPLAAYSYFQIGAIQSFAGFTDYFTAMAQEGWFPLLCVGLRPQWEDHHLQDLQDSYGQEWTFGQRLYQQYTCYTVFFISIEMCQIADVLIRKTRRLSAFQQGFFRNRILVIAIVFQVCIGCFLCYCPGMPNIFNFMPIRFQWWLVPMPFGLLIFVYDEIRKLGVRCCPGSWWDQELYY
T1 sequence (P18597 whole entry partner): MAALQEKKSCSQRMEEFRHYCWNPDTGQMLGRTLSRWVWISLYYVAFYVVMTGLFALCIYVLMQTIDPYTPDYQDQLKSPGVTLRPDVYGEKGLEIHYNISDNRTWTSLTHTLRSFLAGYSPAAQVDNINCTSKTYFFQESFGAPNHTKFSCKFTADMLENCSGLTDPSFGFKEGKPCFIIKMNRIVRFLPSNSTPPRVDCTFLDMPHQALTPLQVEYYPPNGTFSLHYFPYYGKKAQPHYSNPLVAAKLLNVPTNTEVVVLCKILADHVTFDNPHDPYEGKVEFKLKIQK
T2 sequence (Q12809 whole entry): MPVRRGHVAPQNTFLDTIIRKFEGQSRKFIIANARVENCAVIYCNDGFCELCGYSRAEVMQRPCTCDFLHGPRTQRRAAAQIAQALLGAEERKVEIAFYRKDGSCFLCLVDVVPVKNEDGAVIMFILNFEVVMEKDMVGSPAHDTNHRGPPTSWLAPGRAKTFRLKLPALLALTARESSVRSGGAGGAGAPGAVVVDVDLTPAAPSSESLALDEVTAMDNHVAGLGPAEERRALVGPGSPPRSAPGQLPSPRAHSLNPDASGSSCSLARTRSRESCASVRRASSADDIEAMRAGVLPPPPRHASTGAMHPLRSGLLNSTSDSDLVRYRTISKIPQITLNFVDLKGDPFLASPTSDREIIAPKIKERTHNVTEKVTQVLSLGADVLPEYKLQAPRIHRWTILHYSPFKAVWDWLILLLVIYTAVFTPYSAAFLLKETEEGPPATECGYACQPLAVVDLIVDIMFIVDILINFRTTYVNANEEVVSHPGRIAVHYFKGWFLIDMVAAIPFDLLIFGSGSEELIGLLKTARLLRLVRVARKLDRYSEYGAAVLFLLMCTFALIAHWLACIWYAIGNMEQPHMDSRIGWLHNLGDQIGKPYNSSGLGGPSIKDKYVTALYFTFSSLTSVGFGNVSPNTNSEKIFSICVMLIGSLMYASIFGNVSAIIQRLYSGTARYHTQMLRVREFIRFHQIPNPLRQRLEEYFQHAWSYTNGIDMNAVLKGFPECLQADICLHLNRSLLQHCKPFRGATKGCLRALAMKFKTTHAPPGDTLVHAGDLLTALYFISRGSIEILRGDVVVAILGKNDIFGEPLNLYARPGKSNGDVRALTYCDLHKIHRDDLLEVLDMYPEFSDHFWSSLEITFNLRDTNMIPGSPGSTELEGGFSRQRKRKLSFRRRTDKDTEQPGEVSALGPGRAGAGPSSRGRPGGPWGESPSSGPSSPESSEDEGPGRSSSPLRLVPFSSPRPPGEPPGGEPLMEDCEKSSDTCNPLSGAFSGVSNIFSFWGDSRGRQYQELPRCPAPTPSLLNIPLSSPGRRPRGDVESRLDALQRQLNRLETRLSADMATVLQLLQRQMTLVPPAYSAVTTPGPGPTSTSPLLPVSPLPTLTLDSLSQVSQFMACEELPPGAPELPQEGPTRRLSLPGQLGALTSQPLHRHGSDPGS

Structure (SMILES) | IC50 [1] | also measured
CNCc1cc(-c2ccccc2F)n(S(=O)(=O)c2cccc(OCCCS(C)(=O)=O)c2)c1 [EXP 4, 1-(5-(2-fluorobenzene)-1-((3-(3-methylsulphonylpropoxy)phenyl)sulfonyl)-1H-pyrrole-3-yl)-N-methyl methylamine] | < 0.1 µM | –
CNCc1cc(-c2ccccc2F)n(S(=O)(=O)c2cccc(OCCN3CCOCC3)c2)c1 [EXP 5, 1-(5-(2-Fluorobenzene)-1-((3-(2-Morpholinyl Ethyoxyl)Phenyl)Sulfonyl)-1H-Pyrrole-3-Yl)-N-Methyl Methylamine] | 0.1 to 1 µM | –
CNCc1cc(-c2ccccc2F)n(S(=O)(=O)c2cccc(NCCN3CCOCC3)c2)c1 [EXP 6, 3-((2-(2-Fluorobenzene)-4-((Methylamino)Methylene)-1H-Pyrrole-1-Yl)Sulfonyl)-N-(2-Morpholinyl Ethyl) Henylamine] | 0.1 to 1 µM | –
CNCCCOc1cccc(S(=O)(=O)n2cc(CNC)cc2-c2ccccc2F)c1 [EXP 7, 3-(3-((2-(2-fluorobenzene)-4-((methylamino)methylene)-1H-pyrrole-1-yl)sulfonyl)phenoxy)-N-methyl-n-propylamine] | 0.1 to 1 µM | –
CNCc1cc(-c2ccccc2F)n(S(=O)(=O)c2cccc(OCC3CNCCO3)c2)c1 (stereo not shown) [EXP 8, 1-(5-(2-fluorobenzene)-1-((3-(morpholinyl-2-yl-methoxyl)phenyl)sulfonyl)-1H-pyrrole-3-yl)-N-methyl methylamine] | 0.1 to 1 µM | –
CNCc1cc(-c2ccccc2F)n(S(=O)(=O)c2cccc(OCC(C)(C)COC)c2)c1 [EXP 9, 1-(5-(2-fluorobenzene)-1-((3-(3-methoxy-2,2-dimethylpropoxy)phenyl)sulfonyl)-1H-pyrrole-3-yl)-N-methyl methylamine] | 0.1 to 1 µM | –
CNCc1cc(-c2ccccc2F)n(S(=O)(=O)c2cccc(OCCOc3ccccc3)c2)c1 [EXP 10, 1-(5-(2-Fluorobenzene)-1-((3-(2-Phenoxy Ethyoxyl)Phenyl)Sulfonyl)-1H-Pyrrole-3-Yl)-N-Methyl Methylamine] | < 0.1 µM | –
CNCc1cc(-c2ccccc2F)n(S(=O)(=O)c2cccc(OCCN3CCCCC3)c2)c1 [EXP 11] | 1 to 5 µM | –

The next lines start with results.

IC50 [1] | Structure (SMILES) | also measured
0.1 to 1 µM | CNCc1cc(-c2ccccc2F)n(S(=O)(=O)c2cccc(OC3CCN(C(C)=O)C3)c2)c1 (stereo not shown) [EXP 2, 1-(3-(3-((2-(2-fluorobenzene)-4-((methylamino)methyl)-1H-yl)sulfonyl)phenoxy)pyrrolidine-1-yl)ethyl-1-ketone] | –
0.1 to 1 µM | CNCc1cc(-c2ccccc2F)n(S(=O)(=O)c2cccc(OCCOC)c2)c1 [EXP 3, 1-(5-(2-fluorobenzene)-1-((3-(2-methoxyethyoxyl)phenyl)sulfonyl)-1H-pyrrole-3-yl)-N-methyl methylamine] | –
< 0.1 µM | CNCc1cc(-c2ccccc2F)n(S(=O)(=O)c2cccc(OC)c2)c1 [EXP 12] | IC50 ([2]; human, hERG cells (host cell line not named), pH 7.4, whole cell patch clamp, logistic fit): 3.95 µM; Inhibition ratio of max. test concentration (hERG current) ([2]; max. test concentration 30 μM): 90.33 ± 2.16%
0.1 to 1 µM | CNCc1cc(-c2ccccc2F)n(S(=O)(=O)c2cccc(OCC(=O)NC)c2)c1 [EXP 14, 2-(3-((2-(2-fluorophenyl)-4-((methylamine)methyl)-1H-pyrrole-1-yl)sulfonyl)phenoxy)-N-methylacetamide] | Total acid content ([3]; 2 mg/kg by gavage 1 h before histamine, total acid of 3 h): 0.65 ± 0.20** 10^−4 mol; Acid inhibiting rate % ([3]; 2 mg/kg by gavage, compared with model control): 40.4%
